Source: ChEMBL document CHEMBL3259583, “Synthesis and biological evaluation of (+)-neopeltolide analogues: importance of the oxazole-containing side chain” (Bioorg Med Chem Lett, 2014)

Columns and labels:
A549 [1] = experiment: Antiproliferative activity against human A549 cells after 120 hrs by WST-8 assay; assay type: functional, cell-based; conditions: A549, 120 h
[2] = Antiproliferative activity against human PANC1 cells after 96 hrs by WST-8 assay; assay type: functional, cell-based; conditions: PANC-1, 96 h
A549 [3] = experiment: Ratio of (+)-Neopeltolide IC50 to compound IC50 for human A549 cells after 120 hrs by WST-8 assay; assay type: functional

SMILES | IC50 (A549 [1]) | IC50 [2] | Ratio IC50 (A549 [3])
C/C=C\c1nc(CC/C=C\C(=O)O[C@H]2C[C@@H]3CC(=O)O[C@@H](CCC)C[C@@H](OC)C/C(C)=C\[C@H](C2)O3)co1 | 740 nM | 440 nM | 
CCC[C@H]1C[C@@H](OC)C/C(C)=C\[C@@H]2C[C@@H](OC(=O)/C=C\CCc3coc(/C=C\CNC(=O)OC)n3)C[C@H](CC(=O)O1)O2 | 0.5 nM | 2.4 nM | 3
CCC[C@H]1C[C@@H](OC)C/C(C)=C\[C@@H]2C[C@@H](OC(=O)CCCCc3coc(/C=C\CNC(=O)OC)n3)C[C@H](CC(=O)O1)O2 | 110 nM | 26 nM | 
CCC[C@H]1C[C@@H](OC)C/C(C)=C\[C@@H]2C[C@@H](OC(=O)/C=C\CCc3coc(CCCNC(=O)OC)n3)C[C@H](CC(=O)O1)O2 | 400 nM | 200 nM | 
CCC[C@H]1C[C@@H](OC)C/C(C)=C\[C@@H]2C[C@@H](OC(=O)CCCCc3coc(CCCNC(=O)OC)n3)C[C@H](CC(=O)O1)O2 | > 10000 nM | 3200 nM | 
CCC[C@H]1C[C@@H](OC)C/C(C)=C\[C@@H]2C[C@@H](OC(=O)/C(C)=C\CCc3coc(/C=C\CNC(=O)OC)n3)C[C@H](CC(=O)O1)O2 | 2.5 nM | 2.6 nM | 
CCC[C@H]1C[C@@H](OC)C/C(C)=C\[C@@H]2C[C@@H](OC(=O)/C=C(/C)CCc3coc(/C=C\CNC(=O)OC)n3)C[C@H](CC(=O)O1)O2 | 6.3 nM | 6.4 nM | 
CCC[C@H]1C[C@@H](OC)C/C(C)=C\[C@@H]2C[C@@H](OC(=O)c3ccccc3CCc3coc(/C=C\CNC(=O)OC)n3)C[C@H](CC(=O)O1)O2 | 500 nM | 75 nM | 
CCC[C@H]1C[C@@H](OC)C/C(C)=C\[C@@H]2C[C@@H](OC(=O)/C=C\CCc3coc(C=C(C)C)n3)C[C@H](CC(=O)O1)O2 | 3900 nM | 2800 nM | 
